Results taken from patent US20110229447A1, “NUTRITIONAL SUPPORT TO PREVENT OR MODERATE BONE MARROW PARALYSIS OR NEUTROPENIA DURING ANTI-CANCER TREATMENT” (priority 2008, published 2011).

Experiments:
[1] = Example 2: body weight, haematology and flow cytometry of immune cells in tumor-bearing mice on supplemented diets with or without chemotherapy; format: in vivo, C57BL/6 (H-2b) mice; settings: for immune cell population / concentration: during the second (tumor-induced) phase; for Global lymphocyte population: following chemotherapy
Protocol: Mice. […] The animals were distributed into 7 different group diets. There was a control group that received the diet AIN 93 for adult rodents (maintenance). Test diets were administered in doses appropriate to the animal model: (a) Ctrl diet were supplemented with 1% (w/w) L-arginine, (b) 25% of the protein was replaced by glutamine, (c) 1% (w/w) L-citrulline, (d) 1 g/Kg body weight with active hexose correlated compound, (e) 20 mg/day of RNA nucleotides and (f) 25 mg/day of lactoferrin. […] Control animals without chemotherapeutic treatment were run in parallel for all tested diets. Body weight was assessed every two days. Blood samples were obtained at day 2, 4 and 10 after the chemo-treatment and at sacrifice (14 or 28 days). An autopsy was performed and tumor mass was assessed.
Haematological Evaluation.
Flow Cytometric Analysis.

[2] = system: γδ T cells; settings: acid hydrolysed, diluted in media; 5%-75%; cited from earlier work
[3] = Example 1: body weight and haematological toxicity of chemotherapy in tumor-bearing mice
Protocol: Mice. Inbred eight-week-old C57BL/6 (H-2b) mice were used in the experiments. Mice were inoculated subcutaneously (s.c.) on the left flank with 1×10^6 tumor cells, and tumor growth was monitored every 2 days by caliper measurement. 6 days after the tumor inoculation the animals were treated either with oxaliplatin or doxorubicin. Tumor growth was monitored every two days after the chemotherapeutic treatment and they were sacrificed after two weeks of tumor implantation. Some experiments were carried out until 28 days post-chemo to better assess tumor growth.
Body weight was assessed every two days until sacrifice.
Blood samples were obtained at day 2 and 4 after the chemo-treatment, at day 10 and at sacrifice (14 or 28 days). An autopsy was performed and tumoral mass was assessed.
Haematological Evaluation. Red blood cell enumeration, hemoglobin and hematocrit were measured at 2, 4, 10, 14 and 28 days.
White blood cell counts and differential leukocyte formulation were examined at the same time points. Blood samples were used in addition to determine immune cell populations.
Flow Cytometric Analysis. Cell subset analysis of the CD11c^+, CD11b^+Gr-1^+ and CD11b^+Gr-1^−, CD14^+, CD19^+, CD16^+, CD56^+, CD3^+, CD8^+, CD4^+ was performed. The battery of antibodies used permitted the evaluation of: B and T cell subsets NK, NKT cells, macrophages, dendritic cells, granulocytes.

[4] = system: MCA-OVA tumor cells; test: Example 2: tumor growth in mice on supplemented diets with or without chemotherapy; format: in vivo, C57BL/6 (H-2b) mice
Protocol: Mice. […] The animals were distributed into 7 different group diets. There was a control group that received the diet AIN 93 for adult rodents (maintenance). […] Control animals without chemotherapeutic treatment were run in parallel for all tested diets. Body weight was assessed every two days. Blood samples were obtained at day 2, 4 and 10 after the chemo-treatment and at sacrifice (14 or 28 days). An autopsy was performed and tumor mass was assessed.
Cancer Cell Lines. Methylcholanthrene (MCA) induced sarcoma cell line expressing the exogenous antigen ovalbumin (OVA) was grown in DMEM or RPMI 1640 supplemented with 2 mM L-glutamine, 10 mM HEPES, 20 μM 2-mercaptoethanol, 150 U/mL streptomycin, 200 U/mL penicillin, and 10% heat-inactivated FBS. 1×10^6 tumor cells were injected in the flank of the mice 6 days prior to the chemotherapy.
Tumor Growth Evaluation. Growth of tumors was monitored every 2 d by using calipers, and tumor volume was calculated by using the formula length×width×width×0.52 mm^3.

[5] = system: NK cell; settings: about 750 mg per day for two weeks; cited from earlier work

## lactoferrin
[1]; chemotherapy treated group versus control (FIG. 11)
  toxicity (bone marrow / blood cells): less toxicity
[1]
  immune cell population / concentration: increase in their immune cell population
  Global lymphocyte population: less depressed
[1]; oxaliplatin treated animals, after day ten
  leukocytic increase (white blood cell counts): leukocytic increase tended to be higher

## CCNC(=O)CC[C@H](N)C(=O)O [L-theanine]
[2]
  expansion of γδ T cells: 15 fold

## O=C1[O][Pt]2([NH][C@@H]3CCCC[C@H]3[NH]2)[O]C1=O [oxaliplatin]
[1]; maximal dose 10 mg/kg
  Maximal weight loss: around 15%
[3]; maximal dose 10 mg/kg, of initial body weight
  Maximal weight loss: around 15%
[3]; recovery starting after 7 days post chemotherapy
  leukocyte counts: higher that the baseline counts

## NC(=O)NCCC[C@H](N)C(=O)O [citrulline, L-citrulline]
[1]
  Global lymphocyte population: less depressed

## N=C(N)NCCC[C@H](N)C(=O)O [arginine, L-arginine]
[1]; between days 6 and 10 post-chemo (FIG. 3)
  fall of erythrocytes (RBC): prevented the marked fall of erythrocytes
[1]
  immune cell population / concentration: increase immune cell concentration
[1]; flow cytometry, around 10 days post chemotherapy
  loss of CD3+ cells: partially modulated
[4]; combination with chemotherapy versus chemotherapy alone (FIG. 4)
  tumor size: further reduced the tumor size
[4]; compared to other diet groups
  progression of the implanted tumor: delayed progression of the implanted tumor

## NC(=O)CC[C@H](N)C(=O)O [glutamine]
[1]
  Global lymphocyte population: less depressed

## vitamin E
[5]
  NK cell cytolytic activity: significantly improved
  NKG2D expression: small but consistent induction
